What was measured:
[1] = tested on: human lung cancer cells (H358); test: cell death in lung cancer spheroids; format: cell-based; conditions: 24 hour exposure, increasing doses
Method: (§1) The respective cells were individually cultured in a growth medium prepared using RPMI-1640 medium containing 11.1 mM D-glucose with 10% fetal bovine serum, 10 mM HEPES, 2 mM L-glutamine, 1 mM sodium pyruvate, 0.05 mM 2-mercaptoethanol, and Antibiotic-Antimycotic. These cells were maintained in T75 tissue culture flasks in a humidified incubator at 37° C. and 5% CO2. The media were changed on a third day after cell plating, and the cells were passaged on day 5 by trypsinization.
(§2) Custom-made micromolds with 100 μm diameter wells were loaded with the cells (U.S. Pat. No. 8,735,154, incorporated by reference herein). The media were changed every day by partial replacement. Cell aggregates were allowed to form in the micromolds for 72 hours and then were transferred to a 100 mm non-treated tissue culture dishes for 3 additional days. The spheroids were passed through 70 μm and 100 μm cell strainers (#3431751 and #43152, Corning, Tewksbury, Mass.) and maintained in HEPES Balanced Salt Solution comprised of: 20 mM HEPES, 114 mM NaCl, 4.7 mM KCl, 1.2 mM KH2PO4, 1.16 mM MgSO4, 2.5 mM CaCl2, 25.5 mM NaHCO3 and 0.2% bovine serum albumin (fatty acid free), pH 7.2.
The lymphomas treatment methods used were identical to those described in Example 2 relative to the pediatric leukemia cells, whereas the lung cancer treatment method was the same as described in Example 1.

[2] = tested on: human ovarian cancer cells (A1847); test: cell death in ovarian cancer spheroids; format: cell-based; conditions: 24 hour exposure, increasing doses
Method: as §1, §2
(§3) The cells were treated and tested as set forth in Example 1.

[3] = tested on: human prostate cancer cells (22rv1); test: cell death in prostate cancer spheroids; format: cell-based; conditions: 24 hour exposure, increasing doses
Method: as §1, §2, §3

ovarian cancer cells = conditions: low doses of doxorubicin alone (up to 0.158 μM)
Method: In this test, the synergism of GZ17-6.02 with doxorubicin (a common chemotherapy drug) was tested on ovarian cancer cells. In this test, increasing doses of doxorubicin were administered to ovarian cancer spheroids and cell deaths were measured, as described in Example 1. The protocol involved testing doxorubicin alone at various dosages (FIG. 8, doxorubicin alone—closed circles), with comparative tests using the various dosages of doxorubicin in combination with either 0.2 mg/mL (FIG. 8 open circles) or 0.4 mg/mL (FIG. 8 closed triangles) GZ17-6.02. Additionally, the induced cell death results from use of 0.2 mg/mL GZ17-6.02 alone (FIG. 8, line A) and 0.4 mg/mL GZ17-6.02 alone (FIG. 8, line B) were determined.

COc1cccc(C=O)c1O [O-vanillin]
cell death / anticancer effect (cell number) [1]: demonstrated anticancer effects
cell death / anticancer effect (cell number) [2]: demonstrated anticancer effects
cell death / anticancer effect (cell number) [3]: demonstrated anticancer effects

COc1cccc2c1C(=O)c1c(O)c3c(c(O)c1C2=O)C[C@@](O)(C(=O)CO)C[C@@H]3O[C@H]1C[C@H](N)[C@H](O)[C@H](C)O1 [doxorubicin]
cell death, doxorubicin alone (ovarian cancer cells): ineffective

COc1ccc2c3c([nH]c2c1)C(C)=NCC3 [harmaline]
cell death / anticancer effect (cell number) [1]: demonstrated anticancer effects
cell death / anticancer effect (cell number) [2]: demonstrated anticancer effects
cell death / anticancer effect (cell number) [3]: demonstrated anticancer effects

CC1=NCCc2c1[nH]c1cc(O)ccc21.Cl [harmalol hydrochloride]
cell death / anticancer effect (cell number) [1]: demonstrated anticancer effects
cell death / anticancer effect (cell number) [2]: demonstrated anticancer effects
cell death / anticancer effect (cell number) [3]: demonstrated anticancer effects

Cc1nccc2c1[nH]c1cc(O)ccc12.Cl [harmole hydrochloride]
cell death / anticancer effect (cell number) [1]: demonstrated anticancer effects
cell death / anticancer effect (cell number) [2]: demonstrated anticancer effects
cell death / anticancer effect (cell number) [3]: demonstrated anticancer effects

COc1ccc(C(=O)O)cc1O [isovanillic acid]
cell death / anticancer effect (cell number) [1]: demonstrated anticancer effects
cell death / anticancer effect (cell number) [2]: demonstrated anticancer effects
cell death / anticancer effect (cell number) [3]: demonstrated anticancer effects

COc1ccc(CO)cc1O [isovanillyl alcohol]
cell death / anticancer effect (cell number) [1]: demonstrated anticancer effects
cell death / anticancer effect (cell number) [2]: demonstrated anticancer effects
cell death / anticancer effect (cell number) [3]: demonstrated anticancer effects

COc1ccc2c3c([nH]c2c1)[C@@H](C)NCC3 [tetrahydro-harmine]
cell death / anticancer effect (cell number) [1]: demonstrated anticancer effects
cell death / anticancer effect (cell number) [2]: demonstrated anticancer effects
cell death / anticancer effect (cell number) [3]: demonstrated anticancer effects

COc1cc(C=O)ccc1O [vanillin]
cell death / anticancer effect (cell number) [1]: demonstrated anticancer effects
cell death / anticancer effect (cell number) [2]: demonstrated anticancer effects
cell death / anticancer effect (cell number) [3]: demonstrated anticancer effects

Reference: US20160106721A1, “HUMAN THERAPEUTIC AGENTS” (Life Plus, LLC, priority 2014, published 2016)
